Results reported in patent publication US20260365671A1, “HETEROCYCLIC COMPOUND” (Takeda Pharmaceutical Company Limited, priority 2022, published 2026).

Experiments:
NF-κB pathway = experiment: TNF-α assay (THP-1 cells differentiated to macrophages with IFN-γ, NF-κB pathway activated with LPS; ELISA); assay type: cell-based, Human; conditions: compound 30 min, 50 ng/mL LPS 3 hours
Procedure, shortened: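 THP-1 cells differentiated with 25 ng/mL IFN-γ for 24 h, then 30 min with compounds in serum-free medium. NF-κB activated with 50 ng/mL LPS, 3 h at 37 °C. Supernatant TNF-α by ELISA; IC50 from four-parameter logistic fit of % inhibition.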

NLRP3 inflammasome = molecular target: T1, NLRP3 inflammasome (Homo sapiens, UniProt Q96P20); experiment: IL-1β TR-FRET assay (THP-1 cells differentiated to macrophages with IFN-γ, LPS primed, ATP activated; HTRF); assay type: cell-based; conditions: THP-1 macrophages, 50 ng/mL LPS priming, compound 30 min, 20 mM ATP 2 hours
T1 construct: IL-1beta HTRF
T1 sequence (Q96P20 whole entry): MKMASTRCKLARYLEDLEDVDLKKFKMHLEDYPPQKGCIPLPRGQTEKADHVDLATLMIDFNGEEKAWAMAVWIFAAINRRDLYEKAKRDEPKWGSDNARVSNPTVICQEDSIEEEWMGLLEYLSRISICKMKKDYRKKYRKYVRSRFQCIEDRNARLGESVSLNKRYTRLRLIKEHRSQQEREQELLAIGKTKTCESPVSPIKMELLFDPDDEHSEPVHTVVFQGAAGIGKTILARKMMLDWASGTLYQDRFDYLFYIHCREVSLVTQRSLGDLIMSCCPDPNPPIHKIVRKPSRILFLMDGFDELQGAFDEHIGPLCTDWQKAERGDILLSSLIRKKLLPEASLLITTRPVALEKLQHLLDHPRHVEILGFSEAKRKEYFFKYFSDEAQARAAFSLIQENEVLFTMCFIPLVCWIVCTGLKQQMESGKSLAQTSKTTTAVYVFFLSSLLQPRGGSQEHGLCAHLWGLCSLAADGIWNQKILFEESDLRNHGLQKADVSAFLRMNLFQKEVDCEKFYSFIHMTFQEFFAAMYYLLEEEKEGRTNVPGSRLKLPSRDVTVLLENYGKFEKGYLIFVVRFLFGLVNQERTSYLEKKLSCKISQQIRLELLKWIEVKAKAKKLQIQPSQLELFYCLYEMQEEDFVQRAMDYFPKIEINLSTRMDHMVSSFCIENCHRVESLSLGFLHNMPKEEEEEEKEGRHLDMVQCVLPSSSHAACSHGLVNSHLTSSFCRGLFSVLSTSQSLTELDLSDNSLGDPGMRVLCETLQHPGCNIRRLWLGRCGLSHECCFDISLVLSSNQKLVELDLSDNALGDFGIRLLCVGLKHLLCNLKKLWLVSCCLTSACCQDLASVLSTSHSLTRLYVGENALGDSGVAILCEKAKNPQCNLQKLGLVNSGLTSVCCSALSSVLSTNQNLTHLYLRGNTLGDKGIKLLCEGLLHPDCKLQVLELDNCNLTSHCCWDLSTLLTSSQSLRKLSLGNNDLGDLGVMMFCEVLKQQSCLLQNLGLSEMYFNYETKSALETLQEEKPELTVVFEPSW
Procedure, shortened: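 THP-1 cells differentiated with 25 ng/mL IFN-γ for 24 h, primed with 50 ng/mL LPS in serum-free medium for 24 h, then treated with compounds for 30 min before 20 mM ATP activation for 2 h at 37 °C. Secreted IL-1β quantified by HTRF; IC50 from logistic fit of % inhibition.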

[1] = Homo sapiens, THP-1, THP-1 macrophages

| SMILES | IC50 (NF-κB pathway; THP-1 macrophages) | IC50 (NLRP3 inflammasome) | IC50 (NF-κB pathway; [1]) |
| --- | --- | --- | --- |
| Cc1cc(C)c(-n2cc3sc(NCC4(F)CCC4)nc3n2)c(O)c1 [Example 138, 2-(5-{[(1-fluorocyclobutyl)methyl]amino}-2H-pyrazolo[3,4-d][1,3]thiazol-2-yl)-3,5-dimethylphenol] | – | 0.6 µM | > 10 µM |
| CNC(=O)N1CCC(Nc2nc3nn(-c4c(C)cc(C)cc4O)cc3s2)C1 (stereo not drawn) [Example 86, 3-{[2-(2-hydroxy-4,6-dimethylphenyl)-2H-pyrazolo[3,4-d][1,3]thiazol-5-yl]amino}-N-methylpyrrolidine-1-carboxamide] | – | 0.3 µM | > 30 µM |
| Cc1cc(O)c(-n2cc3sc(N[C@@H]4C[C@@H](F)CN(C)C4)nc3n2)c(C2CC2)c1 [Example 65, 3-cyclopropyl-2-(5-{[(3R,5R)-5-fluoro-1-methylpiperidin-3-yl]amino}-2H-pyrazolo[3,4-d][1,3]thiazol-2-yl)-5-methylphenol] | – | 0.0083 µM | > 30 µM |
| Cc1cc(C)c(-n2cc3sc(N[C@@H]4CCN(C(=O)OC5CC5)C4)nc3n2)c(O)c1 [Example 153, cyclopropyl (3R)-3-{[2-(2-hydroxy-4,6-dimethylphenyl)-2H-pyrazolo[3,4-d][1,3]thiazol-5-yl]amino}pyrrolidine-1-carboxylate] | – | 0.27 µM | > 30 µM |
| Cc1cc(C(F)F)cc(O)c1-n1cc2sc(N[C@@H]3C[C@@H](F)CN(C)C3)nc2n1 [Example 13, 5-(difluoromethyl)-2-(5-{[(3R,5R)-5-fluoro-1-methylpiperidin-3-yl]amino}-2H-pyrazolo[3,4-d][1,3]thiazol-2-yl)-3-methylphenol] | – | 0.025 µM | > 30 µM |
| Cc1cc(C)c(-n2cc3sc(N[C@H]4CCN(C)C(=O)C4)nc3n2)c(O)c1 [Example 136, (4S)-4-{[2-(2-hydroxy-4,6-dimethylphenyl)-2H-pyrazolo[3,4-d][1,3]thiazol-5-yl]amino}-1-methylpiperidin-2-one] | – | 3.3 µM | > 30 µM |
| Cc1cc(C)c(-n2cc3sc(NCC(O)c4ccccn4)nc3n2)c(O)c1 (stereo not drawn) [Example 164, 2-(5-{[2-hydroxy-2-(pyridin-2-yl)ethyl]amino}-2H-pyrazolo[3,4-d][1,3]thiazol-2-yl)-3,5-dimethylphenol] | – | 1 µM | > 30 µM |
| CCN1C[C@H](F)C[C@@H](Nc2nc3nn(-c4c(O)cc(F)cc4C(F)F)cc3s2)C1 [Example 24, 3-(difluoromethyl)-2-(5-{[(3R,5R)-1-ethyl-5-fluoropiperidin-3-yl]amino}-2H-pyrazolo[3,4-d][1,3]thiazol-2-yl)-5-fluorophenol] | – | 0.016 µM | > 10 µM |
| Cc1cc(C)c(-n2cc3sc(N[C@H]4CCN(C(=O)OC5CC5)C4)nc3n2)c(O)c1 [Example 154, cyclopropyl (3S)-3-{[2-(2-hydroxy-4,6-dimethylphenyl)-2H-pyrazolo[3,4-d][1,3]thiazol-5-yl]amino}pyrrolidine-1-carboxylate] | – | 1.9 µM | > 30 µM |
| Cc1cc(C)c(-n2cc3sc(N[C@@H]4CCN(C)C(=O)C4)nc3n2)c(O)c1 [Example 137, (4R)-4-{[2-(2-hydroxy-4,6-dimethylphenyl)-2H-pyrazolo[3,4-d][1,3]thiazol-5-yl]amino}-1-methylpiperidin-2-one] | – | 1.1 µM | > 30 µM |
| Cc1cc(C)c(-n2cc3sc(NCC4(O)COC4)nc3n2)c(O)c1 [Example 161, 3-({[2-(2-hydroxy-4,6-dimethylphenyl)-2H-pyrazolo [3,4-d][1,3]thiazol-5-yl]amino}methyl)oxetan-3-ol] | – | 16 µM | > 30 µM |
| Cc1cc(C)c(-n2cc3sc(NCC(C)(C)O)nc3n2)c(O)c1 [Example 66, 2-{5-[(2-hydroxy-2-methylpropyl)amino]-2H-pyrazolo[3,4-d][1,3]thiazol-2-yl}-3,5-dimethylphenol] | – | 0.25 µM | > 30 µM |
| Cc1cc(C)c(-n2cc3sc(NC4CCCN(S(C)(=O)=O)C4)nc3n2)c(O)c1 (stereo not drawn) [Example 112, 2-(5-{[1-(methanesulfonyl)piperidin-3-yl]amino}-2H-pyrazolo[3,4-d][1,3]thiazol-2-yl)-3,5-dimethylphenol] | – | 0.55 µM | > 10 µM |
| COCC(=O)N1CCC(Nc2nc3nn(-c4c(C)cc(C)cc4O)cc3s2)C1 (stereo not drawn) [Example 89, 1-(3-{[2-(2-hydroxy-4,6-dimethylphenyl)-2H-pyrazolo[3,4-d][1,3]thiazol-5-yl]amino}pyrrolidin-1-yl)-2-methoxyethan-1-one] | > 30 µM | 0.55 µM | – |
| Cc1cnc(-n2cc3sc(N[C@@H]4CCCN(C)C4)nc3n2)c(O)c1 [Example 63, 5-methyl-2-(5-{[(3R)-1-methylpiperidin-3-yl]amino}-2H-pyrazolo[3,4-d][1,3]thiazol-2-yl)pyridin-3-ol] | – | 3.4 µM | > 10 µM |
| Cc1cc(O)c(-n2cc3sc(N[C@@H]4C[C@@H](F)CN(C)C4)nc3n2)c(CC(F)F)c1 [Example 175, 3-(2,2-difluoroethyl)-2-(5-{[(3R,5R)-5-fluoro-1-methylpiperidin-3-yl]amino}-2H-pyrazolo[3,4-d][1,3]thiazol-2-yl)-5-methylphenol] | – | 0.0037 µM | > 30 µM |
| Cc1cc(O)c(-n2cc3sc(NC[C@@H](C)O)nc3n2)c(C2CC2(F)F)c1 (stereo partly drawn) [Example 141, 3-(2,2-difluorocyclopropyl)-2-(5-{[(2R)-2-hydroxypropyl]amino}-2H-pyrazolo[3,4-d][1,3]thiazol-2-yl)-5-methylphenol] | – | 0.059 µM | > 30 µM |
| Cc1cc(C)c(-n2cc3sc(NC4CCCN(C(=O)CC(F)F)C4)nc3n2)c(O)c1 (stereo not drawn) [Example 113, 3,3-difluoro-1-(3-{[2-(2-hydroxy-4,6-dimethylphenyl)-2H-pyrazolo[3,4-d][1,3]thiazol-5-yl]amino}piperidin-1-yl)propan-1-one] | – | 0.51 µM | > 30 µM |

Continued, values first:

| IC50 (NF-κB pathway; THP-1 macrophages) | IC50 (NLRP3 inflammasome) | IC50 (NF-κB pathway; [1]) | SMILES |
| --- | --- | --- | --- |
| > 30 µM | 0.43 µM | – | Cc1cc(C)c(-n2cc3sc(N[C@H]4COC[C@@H]4F)nc3n2)c(O)c1 (single isomer, unassigned) [Example 143, 2-(5-{[(3R,4S)-4-fluorooxolan-3-yl]amino}-2H-pyrazolo[3,4-d][1,3]thiazol-2-yl)-3,5-dimethylphenol or 2-(5-{[(3S,4R)-4-fluorooxolan-3-yl]amino}-2H-pyrazolo[3,4-d][1,3]thiazol-2-yl)-3,5-dimethylphenol (tR2)] |
| – | 8.4 µM | > 30 µM | Cc1cc(C)c(-n2cc3sc(N[C@H]4C[C@@H](F)CN(C)C4)nc3n2)c(O)c1 [Example 178, 2-(5-{[(3S,5R)-5-fluoro-1-methylpiperidin-3-yl]amino}-2H-pyrazolo[3,4-d][1,3]thiazol-2-yl)-3,5-dimethylphenol] |
| – | 0.21 µM | > 30 µM | CCN1C[C@@H](F)[C@@H](Nc2nc3nn(-c4c(C)cc(C)cc4O)cc3s2)C1 (racemic) [Example 23, racemic mixture of 2-(5-{[(3R,4S)-1-ethyl-4-fluoropyrrolidin-3-yl]amino}-2H-pyrazolo[3,4-d][1,3]thiazol-2-yl)-3,5-dimethylphenol and 2-(5-{[(3S,4R)-1-ethyl-4-fluoropyrrolidin-3-yl]amino}-2H-pyrazolo[3,4-d][1,3]thiazol-2-yl)-3,5-dimethylphenol] |
| – | 0.011 µM | > 30 µM | CCN1C[C@H](F)C[C@@H](Nc2nc3nn(-c4c(C)cc(C(F)F)cc4O)cc3s2)C1 [Example 16, 5-(difluoromethyl)-2-(5-{[(3R,5R)-1-ethyl-5-fluoropiperidin-3-yl]amino}-2H-pyrazolo[3,4-d][1,3]thiazol-2-yl)-3-methylphenol] |
| – | 0.39 µM | > 30 µM | Cc1cc(C)c(-n2cc3sc(N[C@H]4CN(C(=O)C(C)(C)O)C[C@@H]4F)nc3n2)c(O)c1 (racemic) [Example 123, racemic mixture of 1-[(3R,4R)-3-fluoro-4-{[2-(2-hydroxy-4,6-dimethylphenyl)-2H-pyrazolo[3,4-d][1,3]thiazol-5-yl]amino}pyrrolidin-1-yl]-2-hydroxy-2-methylpropan-1-one and 1-[(3S,4S)-3-fluoro-4-{[2-(2-hydroxy-4,6-dimethylphenyl)-2H-pyrazolo[3,4-d][1,3]thiazol-5-yl]amino}pyrrolidin-1-yl]-2-hydroxy-2-methylpropan-1-one] |
| – | 0.013 µM | > 30 µM | CCN1C[C@H](F)C[C@@H](Nc2nc3nn(-c4c(C)cc(C)cc4O)cc3s2)C1 [Example 7, 2-(5-{[(3R,5R)-1-ethyl-5-fluoropiperidin-3-yl]amino}-2H-pyrazolo[3,4-d][1,3]thiazol-2-yl)-3,5-dimethylphenol] |
| – | 4.2 µM | > 30 µM | Cc1cc(C)c(-n2cc3sc(N[C@H]4C[C@H](F)CN(C)C4)nc3n2)c(O)c1 [Example 180, 2-(5-{[(3S,5S)-5-fluoro-1-methylpiperidin-3-yl]amino}-2H-pyrazolo[3,4-d][1,3]thiazol-2-yl)-3,5-dimethylphenol] |
| – | 1.8 µM | > 30 µM | CO[C@H]1CN(C)C[C@@H]1Nc1nc2nn(-c3c(C)cc(C)cc3O)cc2s1 [Example 40, 2-(5-{[(3S,4S)-4-methoxy-1-methylpyrrolidin-3-yl]amino}-2H-pyrazolo[3,4-d][1,3]thiazol-2-yl)-3,5-dimethylphenol] |
| – | 0.58 µM | > 30 µM | Cc1cc(C)c(-n2cc3sc(N[C@H]4COC[C@H]4F)nc3n2)c(O)c1 (racemic) [Example 122, racemic mixture of 2-(5-{[(3R,4R)-4-fluorooxolan-3-yl]amino}-2H-pyrazolo[3,4-d][1,3]thiazol-2-yl)-3,5-dimethylphenol and 2-(5-{[(3S,4S)-4-fluorooxolan-3-yl]amino}-2H-pyrazolo[3,4-d][1,3]thiazol-2-yl)-3,5-dimethylphenol] |
